Assays:
Assay in all cases: relative viability (nuclei count vs DMSO), 5 days (fraction); higher = more cells survive
R406 = compound: COc1cc(Nc2ncc(F)c(Nc3ccc4c(n3)NC(=O)C(C)(C)O4)n2)cc(OC)c1OC [R406]
How it was run: (§1)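 Viability was defined as treated-well nuclei divided by vehicle-well nuclei, with the median taken over replicate plates. Cells from lung cancer lines sat overnight at 37 °C in 1536-well plates, received five √10-spaced library-drug doses by pinning on vehicle-anchored plates, and grew 5 days without medium change before one-step fixation, permeabilisation and Hoechst staining, 4× imaging and MetaXpress nuclear counts. Only plates with control CV under 25% and at least one doubling were kept.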

Daporinad = compound: O=C(/C=C/c1cccnc1)NCCCCC1CCN(C(=O)c2ccccc2)CC1 [Daporinad]
How it was run: as §1

Daporinad + Bortezomib = compound: O=C(/C=C/c1cccnc1)NCCCCC1CCN(C(=O)c2ccccc2)CC1 [Daporinad] + CC(C)C[C@H](NC(=O)[C@H](Cc1ccccc1)NC(=O)c1cnccn1)B(O)O [Bortezomib] (partner 0.002 µM)
How it was run: (§2)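 Relative viability divides the nuclei count in treated wells by that in vehicle wells. Lung cancer cell lines were seeded in 1536-well plates, dosed by pin tool the next day, and fixed and stained after 5 days in one step with final 0.05% Triton X-100, 1% formaldehyde and 1 ug/ml Hoechst. Dosing was a single drug or a fixed anchor-drug dose plus five library-drug doses (not always all listed) in √10 steps, and values are medians of duplicate plates imaged at 4×.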

R406 + Alpelisib = compound: COc1cc(Nc2ncc(F)c(Nc3ccc4c(n3)NC(=O)C(C)(C)O4)n2)cc(OC)c1OC [R406] + Cc1nc(NC(=O)N2CCC[C@H]2C(N)=O)sc1-c1ccnc(C(C)(C)C(F)(F)F)c1 [Alpelisib] (partner 2 µM)
How it was run: as §2

Cell Line	relative viability (R406; 0.08 µM)	relative viability (R406; 0.253 µM)	relative viability (R406; 0.8 µM)	relative viability (R406; 2.53 µM)	relative viability (R406; 8 µM)	relative viability (Daporinad; 0.0005 µM)	relative viability (Daporinad; 0.001581 µM)	relative viability (Daporinad; 0.005 µM)	relative viability (Daporinad; 0.01581 µM)	relative viability (Daporinad + Bortezomib; first compound 0.0005 µM)	relative viability (Daporinad + Bortezomib; first compound 0.001581 µM)	relative viability (Daporinad + Bortezomib; first compound 0.005 µM)	relative viability (Daporinad + Bortezomib; first compound 0.01581 µM)	relative viability (R406 + Alpelisib; first compound 0.08 µM)	relative viability (R406 + Alpelisib; first compound 0.253 µM)	relative viability (R406 + Alpelisib; first compound 0.8 µM)	relative viability (R406 + Alpelisib; first compound 2.53 µM)	relative viability (R406 + Alpelisib; first compound 8 µM)
Calu-6	0.98	1.06	1.11	0.724	0.503	0.955	1.04	0.917	0.533	0.957	1.04	0.848	0.352	1.01	1.14	1.13	0.66	0.389
EBC-1	0.99	1.14	1.25	0.877	0.481	0.829	1.06	1.03	1.08	0.546	0.506	0.558	0.623	0.826	0.969	1.03	0.606	0.386
A-427	0.974	1.23	1.14	0.708	0.639	0.952	1.12	0.982	0.602	0.952	1.02	0.974	0.784	1.14	1.17	1.12	0.928	0.843
NCI-H2347	1.06	1.18	1.11	0.935	0.796	1.13	1.13	1.02	1.09	1.15	1.03	0.922	1.41	0.984	1.15	1.12	0.791	0.856
NCI-H1355	0.977	1.13	1.11	0.626	0.61	0.968	1.13	1.14	1.03	1.16	1.2	1.35	1.07	0.838	0.917	0.985	0.547	0.497
RERF-LC-KJ	0.98	1.06	1.06	0.781	0.827	0.923	1.04	1.07	1.02	0.996	1.05	1.45	1.26	0.87	1.07	0.971	0.738	0.597
NCI-H2228	1.1	1.3	1.15	0.385	0.298	0.925	0.846	1.24	0.973	0.788	1.2	1.12	1.11	0.702	0.735	0.9	0.618	0.161
HOP-62	0.998	1.16	0.97	1.04	1.09	0.94	1.08	1.03	0.491	–	0.84	0.962	0.26	0.779	1.04	0.886	1.09	0.913
HARA	0.975	0.965	1.1	0.676	0.365	0.903	0.958	0.964	0.583	0.979	1.12	1.15	0.345	0.801	0.721	0.879	0.637	0.249
PC-14	0.968	1.18	1.09	0.759	0.601	0.951	1.08	1.08	0.871	0.845	0.891	0.988	0.533	0.947	1.01	1.01	0.664	0.636
NCI-H1755	0.947	1.05	1.13	0.838	0.796	0.966	0.989	1.03	1.02	0.928	0.969	0.935	0.971	0.834	1.05	1.04	0.632	0.21
HCC-78	0.953	1.08	1.06	0.708	0.48	0.81	0.938	1.06	1.12	0.367	0.502	0.345	0.642	0.313	0.33	0.377	0.295	0.214
IA-LM	1.07	1.19	0.957	1.05	0.913	0.888	0.896	0.968	0.859	0.746	0.807	0.872	0.491	0.888	0.999	1	0.962	0.81
NCI-H322M	0.889	0.922	0.939	0.542	0.405	0.906	1.05	0.936	0.751	1.24	1.37	1.04	0.625	0.811	0.807	0.774	0.375	0.457
NCI-H3122	0.948	1	0.989	0.945	0.977	0.955	1	1.05	0.984	1.02	1.01	1.02	1.05	0.729	0.807	0.739	0.695	0.678
NCI-H441	0.903	1.16	1.31	0.424	0.611	0.898	1.13	1.18	1.07	–	0.476	0.486	0.443	–	0.843	0.878	–	0.296
COR-L23	0.953	1.17	1.16	0.901	0.592	1.02	1.04	0.908	0.275	1.01	0.973	0.753	0.212	0.725	0.947	0.828	0.553	0.388
NCI-H2087	1.05	1.16	1.23	0.428	0.851	0.906	1.16	1.22	1.02	0.676	0.644	0.868	0.662	0.959	1.06	1.11	1.09	0.757

Cell Line	relative viability (R406; 0.08 µM)	relative viability (R406; 0.253 µM)	relative viability (R406; 0.8 µM)	relative viability (R406; 2.53 µM)	relative viability (R406; 8 µM)	relative viability (Daporinad; 0.0005 µM)	relative viability (Daporinad; 0.001581 µM)	relative viability (Daporinad; 0.005 µM)	relative viability (Daporinad; 0.01581 µM)	relative viability (Daporinad + Bortezomib; first compound 0.0005 µM)	relative viability (Daporinad + Bortezomib; first compound 0.001581 µM)	relative viability (Daporinad + Bortezomib; first compound 0.005 µM)	relative viability (Daporinad + Bortezomib; first compound 0.01581 µM)	relative viability (R406 + Alpelisib; first compound 0.08 µM)	relative viability (R406 + Alpelisib; first compound 0.253 µM)	relative viability (R406 + Alpelisib; first compound 0.8 µM)	relative viability (R406 + Alpelisib; first compound 2.53 µM)	relative viability (R406 + Alpelisib; first compound 8 µM)
LC-2-ad	0.965	0.987	1.04	0.539	0.312	0.934	1.1	1.03	0.957	0.978	1.07	0.952	0.844	0.769	0.802	0.909	0.329	0.0848
NCI-H1915	1.01	1.15	1.05	0.667	0.835	1.01	1.13	1.07	1.03	0.987	1.05	0.961	0.883	1.08	1.12	1.04	1.02	1.01
NCI-H2023	0.902	1.05	1.12	0.388	0.241	0.982	1.15	1.09	0.987	1.01	1.1	1.04	0.972	0.541	0.572	0.685	0.409	0.474
COR-L 105	0.911	1.05	1.12	0.666	0.418	0.906	0.976	0.991	0.969	0.827	0.815	0.781	0.753	1.26	1.01	1.4	0.757	0.641
SK-LU-1	0.955	1.16	1.15	0.513	0.386	1.06	1.11	1.19	1.12	0.921	1.34	1.16	1.61	1.01	0.849	1.05	0.368	0.203
LXF-289	0.976	1.06	1.04	0.956	0.845	0.959	1.1	1.09	1.1	0.965	1.08	1.05	1.07	0.977	1.06	1.04	1	0.193
PC-3 [JPC-3]	1.04	1.17	1.04	0.819	0.647	1.02	1.1	1.14	1.12	0.85	0.864	0.844	0.827	0.988	1.15	1.13	0.902	0.699
NCI-H661	0.888	0.947	1.01	0.967	0.649	1.01	0.982	0.72	0.605	0.941	0.867	0.659	0.477	0.299	0.878	0.877	0.597	0.274
NCI-H1666	1	1.02	1.05	1.03	0.876	0.891	1.17	1.05	1	0.846	0.93	0.9	0.742	1.11	0.953	1.02	0.786	0.385
NCI-H2085	0.99	1.06	1.1	0.823	0.736	0.984	1.02	1.08	1.18	1	1.12	1.08	1.17	0.971	1.02	1.05	0.829	0.612
NCI-H1734	0.985	1.18	1.16	0.269	0.418	1.04	1.14	0.975	0.453	0.937	0.967	0.888	0.333	0.67	0.732	0.748	0.521	0.465
NCI-H2126	1.05	1.04	1.07	0.918	0.849	1.02	0.978	1.03	1.09	1.07	1.14	1.13	1.15	0.721	0.851	0.75	0.723	0.625
EMC-BAC-2	0.917	1.13	1.08	0.849	0.405	1.01	1.09	0.766	0.487	1.22	1.04	1.06	0.301	0.773	0.786	0.801	0.628	0.384
NCI-H1993	1.01	1.09	0.921	0.658	0.599	0.881	0.99	1.05	1.15	0.919	1.21	1.09	1.12	0.692	0.741	0.772	0.653	0.599
NCI-H596	0.959	1.22	1.04	0.663	0.397	0.911	1.02	0.991	0.638	1.05	1.02	0.998	0.788	0.486	0.53	0.621	0.387	0.183
NCI-H650	0.895	1.12	1	0.791	0.653	0.899	0.953	1.05	1.01	0.622	0.817	0.669	0.833	1.25	1.04	1.16	0.87	0.802
NCI-H1792	1	1.07	1.17	0.251	0.386	0.828	1.17	1.11	1.15	0.924	0.98	0.711	1	0.626	0.665	0.752	0.541	0.563
